# Assay results taken from PubChem BioAssay (NCI).
#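 48-hour exposure; five concentrations; linearly interpolated endpoints. The concentration for full growth arrest is given as TGI.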
# Key:
# Test in all cases: NCI tumour cell line growth inhibition, 48 h
# RXF-631 renal = tested on: RXF-631 renal
# 786-0 renal = tested on: 786-0 renal
# P388/ADR leukemia = tested on: P388/ADR leukemia
# SN12K1 renal = tested on: SN12K1 renal
compound,measurement,setting,value
O=C(CC1Sc2ccccc2NC1=O)Nc1ccccc1[N+](=O)[O-] (centres undefined),TGI,RXF-631 renal,> 100 µM
CCn1cnc2c(=S)nc(N)[nH]c21,TGI,786-0 renal,> 100 µM
CC1NC(=O)C(C)C(c2ccccc2)N(N=O)C1c1ccccc1 (centres undefined),TGI,P388/ADR leukemia,> 100 µM
same,TGI,SN12K1 renal,> 100 µM
